Values belong to the molecule of their own block, whether it stands above or below them.
Experiment: xn = mol fraction of the nth substance listed

Compound: C[N+](C)(C)CCO.O=C([O-])[C@@H]1CCCN1 + O
viscosity (308.15 K, 100 kPa, x1 = 0.0043): 0.91 mPa·s
viscosity (308.15 K, 100 kPa, x1 = 0.0342): 2.01 mPa·s
viscosity (323.15 K, 100 kPa, x1 = 0.0202): 1.11 mPa·s
viscosity (323.15 K, 100 kPa, x1 = 0.0342): 1.52 mPa·s
viscosity (338.15 K, 100 kPa, x1 = 0.0202): 1 mPa·s
viscosity (353.15 K, 100 kPa, x1 = 0.0202): 0.88 mPa·s
viscosity (353.15 K, 100 kPa, x1 = 0.0342): 0.98 mPa·s

Compound: CCCC[n+]1ccn(C)c1.O=S(=O)([N-]S(=O)(=O)C(F)(F)F)C(F)(F)F + CCCCn1cc[n+](C)c1.O=S(=O)([N-]S(=O)(=O)C(F)(F)F)c1ccc[cH-]1.[Fe+2].c1cc[cH-]c1
viscosity (298.15 K, 100 kPa, x1 = 1): 43.8 mPa·s

Compound: CCOS(=O)(=O)[O-].CC[n+]1ccn(C)c1 + CN1CCCC1=O
viscosity (288.15 K, 100 kPa, x1 = 1): 155.5 mPa·s
viscosity (293.15 K, 100 kPa, x1 = 0.8821): 80.25 mPa·s
viscosity (298.15 K, 100 kPa, x1 = 0.596): 27.95 mPa·s
viscosity (318.15 K, 100 kPa, x1 = 0.3021): 5.615 mPa·s

Compound: CCCCCC[n+]1ccn(C)c1.O=S(=O)([N-]S(=O)(=O)C(F)(F)F)C(F)(F)F + O
viscosity (293.15 K, 101 kPa, x2 = 0.233): 55 mPa·s

viscosity (293.15 K, 101 kPa, x1 = 0.0066): 1.65 mPa·s
viscosity (293.15 K, 101 kPa, x1 = 0.0152): 2.6 mPa·s
viscosity (293.15 K, 101 kPa, x2 = 0): 1320 mPa·s
viscosity (293.15 K, 101 kPa, x2 = 0.9557): 6.9 mPa·s
Compound: CC(C)C[P+](C)(CC(C)C)CC(C)C.Cc1ccc(S(=O)(=O)[O-])cc1 + O

Compound: CCCC[n+]1ccn(C)c1.O=S(=O)([O-])C(F)(F)F + OCCOCCOCCOCCO
viscosity (298.15 K, 101 kPa, x2 = 0): 59.8 mPa·s

Compound: CCCCCCCC[n+]1ccn(C)c1.F[P-](F)(F)(F)(F)F + O
viscosity (298 K, 101 kPa, x2 = 0.113): 506 mPa·s

Compound: CCCn1cc[n+](C)c1C.O=S(=O)([N-]S(=O)(=O)C(F)(F)F)C(F)(F)F + OCCOCCOCCOCCO
viscosity (298.15 K, 101 kPa, x2 = 0): 85.6 mPa·s
viscosity (298.15 K, 101 kPa, x2 = 0.5): 56.1 mPa·s

Compound: CCCC[N+]1(C)CCCCC1.O=S(=O)([N-]S(=O)(=O)C(F)(F)F)C(F)(F)F + OCCOCCOCCOCCO
viscosity (298.15 K, 101 kPa, x2 = 0): 178.5 mPa·s
viscosity (298.15 K, 101 kPa, x2 = 0.5): 79.5 mPa·s

viscosity (313.15 K, 101.3 kPa, x2 = 0.667): 80.8 mPa·s
viscosity (323.15 K, 101.3 kPa, x2 = 0.667): 49.2 mPa·s
viscosity (333.15 K, 101.3 kPa, x2 = 0.667): 33.5 mPa·s
viscosity (343.15 K, 101.3 kPa, x2 = 0.667): 23.06 mPa·s
viscosity (353.15 K, 101.3 kPa, x2 = 0.667): 17.84 mPa·s
Compound: O=C(O)CC(=O)O + CC[n+]1ccn(C)c1.[Cl-]

Compound: CCCC[n+]1ccn(C)c1.O=S(=O)([N-]S(=O)(=O)C(F)(F)F)C(F)(F)F + O
viscosity (298 K, 101 kPa, x2 = 0.0716): 27 mPa·s

electrical conductivity (306.15 K, 101 kPa, x2 = 0.5): 1.29 S/m
electrical conductivity (306.15 K, 101 kPa, x2 = 0.556): 0.603 S/m
electrical conductivity (306.15 K, 101 kPa, x2 = 0.588): 0.373 S/m
Compound: [Cl][Al]([Cl])[Cl] + CCCC[n+]1ccn(C)c1.[Cl-]

viscosity (293.15 K, 100 kPa, x1 = 0.5): 153.7 mPa·s
Compound: Oc1cccnc1 + CCCC[n+]1ccn(C)c1.[Cl-]

viscosity (298 K, 100 kPa, x1 = 0.5): 650 mPa·s
Compound: CCCCCCCC[N+](C)(CCCCCCCC)CCCCCCCC.[Cl-] + CCC(=O)O

Compound: CCCC[n+]1ccn(C)c1.[Cl-] + OCC(O)CO
speed of sound (298.15 K, 101 kPa, x2 = 0.333): 1838.8 m/s
speed of sound (303.15 K, 101 kPa, x2 = 0.333): 1826.5 m/s
speed of sound (313.15 K, 101 kPa, x2 = 0.333): 1802.4 m/s

viscosity (298.15 K, 101 kPa, x1 = 0.3915): 15.42 mPa·s
viscosity (298.15 K, 101 kPa, x1 = 0.7748): 21.01 mPa·s
Compound: CCCCCCCC(=O)[O-].CCCCCC[NH+](CCCCCC)CCCCCC + O

Compound: CCCC[N+](CCCC)(CCCC)CCCC.[Cl-] + OCC(O)CO
viscosity (318.15 K, 100 kPa, x1 = 0.333): 57.8 mPa·s

viscosity (298 K, 100 kPa, x1 = 0.5): 140 mPa·s
Compound: CCCC[P+](CCCC)(CCCC)CCCC.[Cl-] + CCC(=O)O

Compound: CC[NH3+].O=[N+]([O-])[O-] + CO
viscosity (293.15 K, 101 kPa, x2 = 0): 44.9 mPa·s
viscosity (293.15 K, 101 kPa, x2 = 0.4): 13.8 mPa·s

Compound: CC[n+]1ccn(C)c1.CS(=O)(=O)[O-] + O
viscosity (283.15 K, 102.2 kPa, x1 = 0.75): 88.7 mPa·s
viscosity (288.15 K, 102.2 kPa, x1 = 0.75): 69 mPa·s
viscosity (293.15 K, 102.2 kPa, x1 = 0.75): 53.3 mPa·s
viscosity (308.15 K, 102.2 kPa, x1 = 0.75): 28.4 mPa·s
viscosity (318.15 K, 102.2 kPa, x1 = 0.75): 20.6 mPa·s
viscosity (323.15 K, 102.2 kPa, x1 = 0.75): 17.9 mPa·s
viscosity (333.15 K, 102.2 kPa, x1 = 0.75): 14 mPa·s

Compound: CCCC[P+](CC)(CCCC)CCCC.[Br-] + OCCOCCO
viscosity (303.15 K, 101 kPa, x1 = 0.333): 77 mPa·s
viscosity (313.15 K, 101 kPa, x1 = 0.333): 48.93 mPa·s
viscosity (323.15 K, 101 kPa, x1 = 0.333): 32.91 mPa·s
viscosity (343.15 K, 101 kPa, x1 = 0.333): 16.88 mPa·s

Compound: CCCCCCCC/C=C\CCCCCCCC(=O)O + CC[N+](CC)(CC)CC.[Cl-]
viscosity (298 K, 100 kPa, x2 = 0.25): 202.2 mPa·s
viscosity (303.2 K, 100 kPa, x2 = 0.25): 156.7 mPa·s
viscosity (333.2 K, 100 kPa, x2 = 0.25): 41.7 mPa·s

speed of sound (298.15 K, 100 kPa, x1 = 0.002): 1341.9 m/s
speed of sound (298.15 K, 100 kPa, x1 = 0.0052): 1400.4 m/s
speed of sound (298.15 K, 100 kPa, x1 = 0.0073): 1474.1 m/s
Compound: CCCC[P+](CCCC)(CCCC)CCCC.F[B-](F)(F)F + C1COCO1

Compound: CC[N+](CC)(CC)CC.[Cl-] + Oc1ccccc1
viscosity (303.15 K, 101 kPa, x1 = 0.333): 72.1 mPa·s
viscosity (313.15 K, 101 kPa, x1 = 0.2): 21.28 mPa·s
viscosity (313.15 K, 101 kPa, x1 = 0.25): 24.68 mPa·s
viscosity (313.15 K, 101 kPa, x1 = 0.333): 43 mPa·s
viscosity (323.15 K, 101 kPa, x1 = 0.25): 16.86 mPa·s
viscosity (323.15 K, 101 kPa, x1 = 0.333): 27.8 mPa·s

Compound: C=CC[n+]1ccn(C)c1.O=S(=O)([N-]S(=O)(=O)C(F)(F)F)C(F)(F)F + CCCO
viscosity (298.15 K, 100 kPa, x1 = 0.1): 3.31 mPa·s
viscosity (298.15 K, 100 kPa, x1 = 0.3): 6.61 mPa·s
viscosity (298.15 K, 100 kPa, x1 = 0.4): 8.51 mPa·s
viscosity (298.15 K, 100 kPa, x1 = 0.6): 13.42 mPa·s
viscosity (298.15 K, 100 kPa, x1 = 1): 34.3 mPa·s

Compound: CCCCCCCCn1cc[n+](C)c1.O=S(=O)([N-]S(=O)(=O)C(F)(F)F)C(F)(F)F + O
viscosity (293.15 K, 101 kPa, x2 = 0.205): 75 mPa·s
electrical conductivity (295.15 K, 101 kPa, x2 = 0.205): 0.21 S/m
